system: HCV 1b_Huh-Luc/Neo-ET cell line persistently expressing a bicistronic genotype 1b replicon in Huh 7 cells; assay: HCV replicon assay (luciferase readout, 72 h); type: cell-based, HCV genotype 1b; conditions: Hepatitis C virus, Huh-7, 72 h, read-out: Inhibition of HCV genotype 1b
Method in brief: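 Huh 7 cells carrying a bicistronic genotype 1b luciferase/neo replicon received compound in triplicate the day after plating. After 72 h, replicon levels were read as Bright-Glo luciferase activity, expressed as % of control; EC50 was fitted with a four-parameter logistic and determined several times.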

`COC(=O)N[C@H](C(=O)N1CCC[C@H]1c1nc(-c2ccc3cc(C#Cc4[nH]c([C@@H]5CCCN5C(=O)[C@@H](NC(=O)OC)C(C)C)nc4C(F)(F)F)ccc3c2)c[nH]1)C(C)C` [Compound 1082] and `COC(=O)N[C@H](C(=O)N1CCC[C@H]1c1ncc(-c2ccc(C#Cc3ccc4c(ccc5nc([C@@H]6CCCN6C(=O)[C@@H](NC(=O)OC)C(C)C)[nH]c54)c3)cc2)[nH]1)C(C)C` [Compound 1095] cannot be ordered by EC50: less than 1 nM for the first, less than 1 nM for the second.

`COC(=O)N[C@@H](C(=O)N1CCC[C@H]1c1ncc(C#Cc2ccc(-c3cnc([C@@H]4CCCN4C(=O)[C@H](NC(=O)OC)c4ccccc4)[nH]3)cc2)[nH]1)c1ccccc1` [Compound 110] and `COC(=O)N[C@@H](C(=O)N1CCC[C@H]1c1ncc(C#Cc2ccc(-c3ccc(-c4cnc([C@@H]5CCCN5C(=O)[C@H](NC(=O)OC)c5ccccc5)[nH]4)cc3)cc2)[nH]1)c1ccccc1` [Compound 750] cannot be ordered by EC50: less than 1 nM for the first, less than 1 nM for the second.

Compared with `COC(=O)N[C@H](C(=O)N[C@H](c1ncc(-c2ccc(C#Cc3ccc(-c4cnc([C@@H]5CCCN5C(=O)[C@@H](NC(=O)OC)C(C)C)[nH]4)cc3)cc2)[nH]1)C(C)C)C(C)C` [Compound 276], `COC(=O)N[C@H](C(=O)N[C@@H](C)c1ncc(-c2ccc(C#Cc3ccc(-c4cnc([C@@H]5CCCN5C(=O)[C@@H](NC(=O)OC)C(C)C)[nH]4)cc3)cc2)[nH]1)C(C)C` [Compound 275] is lower in EC50: 1 to 9.9 nM for the first, less than 1 nM for the second. The second is the more potent here.

`CN1CCC[C@@H]1C(=O)N[C@@H](C(=O)N1CCC[C@H]1c1ncc(-c2ccc(C#Cc3ccc(-c4cnc([C@@H]5CCCN5C(=O)[C@H](NC(=O)C5CC5)c5ccccc5)[nH]4)cc3)cc2)[nH]1)c1ccccc1` [Compound 216] and `CN1CCN(C(=O)N[C@@H](C(=O)N2CCC[C@H]2c2ncc(-c3ccc(C#Cc4ccc(-c5cnc([C@@H]6CCCN6C(=O)[C@H](NC(=O)C6CC6)c6ccccc6)[nH]5)cc4)cc3)[nH]2)c2ccccc2)CC1` [Compound 238] cannot be ordered by EC50: less than 1 nM for the first, less than 1 nM for the second.

`COC(=O)N[C@H](C(=O)N1CCC[C@H]1c1ncc(-c2cc(C)c(C#Cc3ccc4nc([C@@H]5CCCN5C(=O)[C@@H](NC(=O)OC)C(C)C)[nH]c4c3)c(C)c2)[nH]1)C(C)C` [Compound 1060] and `COC(=O)N[C@H](C(=O)N1CCC[C@H]1c1ncc(-c2ccc(C#Cc3ccc(-c4cnc([C@@H]5CCCN5C(=O)[C@@H](NC(=O)OC)[C@@H](C)OC)[nH]4)cc3)cc2)[nH]1)C(C)C` [Compound 972] cannot be ordered by EC50: less than 1 nM for the first, less than 1 nM for the second.

`COC(=O)N[C@@H](C(=O)N1CCC[C@H]1c1ncc(-c2ccc(C#Cc3ccc(-c4cnc([C@@H]5CCCN5C(=O)[C@H](NC(=O)N5CCC[C@H]5CO)c5ccccc5)[nH]4)cc3)cc2)[nH]1)c1ccccc1` [Compound 255] and `COC(=O)N[C@@H](C(=O)N1CCC[C@H]1c1ncc(-c2ccc(C#Cc3ccc(-c4cnc([C@@H]5CCCN5C(=O)[C@H](NC(=O)[C@@H]5CCCO5)c5ccccc5)[nH]4)cc3)cc2)[nH]1)c1ccccc1` [Compound 195] cannot be ordered by EC50: less than 1 nM for the first, less than 1 nM for the second.

`O=C(N[C@@H](C(=O)N1CCC[C@H]1c1ncc(-c2ccc(C#Cc3ccc(-c4cnc([C@@H]5CCCN5C(=O)[C@@H](c5ccccc5)N5CCCCC5)[nH]4)cc3)cc2)[nH]1)c1ccccc1)C1CC1` [Compound 208] and `CC[C@@H](C(=O)N1CCC[C@H]1c1ncc(-c2ccc(C#Cc3ccc(-c4cnc([C@@H]5CCCN5C(=O)[C@H](NC(=O)OC)c5ccccc5)[nH]4)cc3)cc2)[nH]1)c1ccccc1` [Compound 258] cannot be ordered by EC50: less than 1 nM for the first, less than 1 nM for the second.

Compared with `COC(=O)N[C@@H](C)C(=O)N1CCC[C@H]1c1ncc(-c2ccc(C#Cc3ccc(-c4cnc([C@@H]5CCCN5C(=O)[C@H](NC(=O)OC)c5ccccc5)[nH]4)cc3)cc2)[nH]1` [Compound 1004], `COC(=O)NC(C(=O)N1CCC[C@H]1c1ncc(-c2ccc(C#Cc3ccc(-c4cnc([C@@H]5CCCN5C(=O)[C@H](NC(=O)OC)[C@H](C)O)[nH]4)cc3)cc2)[nH]1)[C@H](C)O` (some centres unmarked) [Compound 978] is higher in EC50: less than 1 nM for the first, 10 to 999 nM for the second. The first is the more potent here.

Compared with `COC(=O)N[C@@H](CC(N)=O)C(=O)N1CCC[C@H]1c1ncc(-c2ccc(C#Cc3ccc4nc([C@@H]5CCCN5C(=O)[C@H](CC(N)=O)NC(=O)OC)[nH]c4c3)cc2)[nH]1` [Compound 1046], `COC(=O)N[C@@H](C(=O)N1CCC[C@H]1c1ncc(-c2ccc(C#Cc3ccc4nc([C@@H]5CCCN5C(=O)[C@H](NC(=O)OC)c5ccccc5)[nH]c4c3)cc2)[nH]1)c1ccccc1` [Compound 800] is lower in EC50: 1 to 9.9 nM for the first, less than 1 nM for the second.

`O=C(N[C@@H](C(=O)N1CCC[C@H]1c1ncc(C#Cc2ccc(-c3ccc(-c4cnc([C@@H]5CCCN5C(=O)[C@H](NC(=O)N5CC[C@@H](O)C5)c5ccccc5)[nH]4)cc3)cc2)[nH]1)c1ccccc1)N1CC[C@@H](O)C1` [Compound 763] and `COC(=O)N[C@@H](C(=O)N1CCC[C@H]1c1ncc(C#Cc2ccc(-c3ccc(-c4cnc([C@@H]5CCCN5C(=O)[C@H](NC(=O)OC(C)(C)C)c5ccccc5)[nH]4)cc3)cc2)[nH]1)c1ccccc1` [Compound 753] cannot be ordered by EC50: less than 1 nM for the first, less than 1 nM for the second.

First: COC(=O)N[C@H](C(=O)N1CCC[C@H]1c1ncc(-c2ccc(C#Cc3ccc(-c4cnc([C@@H]5CCCN5C(=O)[C@H](C(C)C)N(C)C)[nH]4)cc3)cc2)[nH]1)C(C)C [Compound 953]
Second: O=C([C@H](O)c1ccccc1)N1CCC[C@H]1c1ncc(C#Cc2ccc(-c3cnc([C@@H]4CCCN4C(=O)[C@H](O)c4ccccc4)[nH]3)cc2)[nH]1 [Compound 112]
The EC50 of the first is higher: 1 to 9.9 nM for the first, less than 1 nM for the second. The second is the more potent here.

`CC(C)(C)OC(=O)N[C@@H](C(=O)N1CCC[C@H]1c1ncc(C#Cc2ccc(-c3ccc(-c4cnc([C@@H]5CCCN5C(=O)[C@H](NC(=O)OC(C)(C)C)c5ccccc5)[nH]4)cc3)cc2)[nH]1)c1ccccc1` [Compound 757] and `COC(=O)N[C@@H](C(=O)N1CCC[C@H]1c1ncc(C#Cc2ccc(-c3ccc(-c4cnc([C@@H]5CCCN5C(=O)[C@@H](c5ccccc5)N5CCOCC5)[nH]4)cc3)cc2)[nH]1)c1ccccc1` [Compound 758] cannot be ordered by EC50: less than 1 nM for the first, less than 1 nM for the second.

Compared with `CC(C)[C@@H](NC(=O)C1CC1)C(=O)N1CCC[C@H]1C(=O)Nc1ccc(C#Cc2cnc([C@@H]3CCCN3C(=O)[C@H](NC(=O)C3CC3)C(C)C)[nH]2)cc1` [Compound 116], `O=C(NC[C@@H]1CCCN1C(=O)[C@H](NC(=O)C1CC1)c1ccccc1)c1ccc(C#Cc2ccc(-c3cnc([C@@H]4CCCN4C(=O)[C@H](NC(=O)C4CC4)c4ccccc4)[nH]3)cc2)cc1` [Compound 193] is lower in EC50: 1 to 9.9 nM for the first, less than 1 nM for the second. The second is the more potent here.

Compared with `O=C(N[C@@H](C(=O)N1CCC[C@H]1c1ncc(C#Cc2ccc(-c3cnc([C@@H]4CCCN4C(=O)[C@H](NC(=O)N4CCOCC4)c4ccccc4)[nH]3)cc2)[nH]1)c1ccccc1)N1CCOCC1` [Compound 102], `CN1CCN(C(=O)N[C@@H](C(=O)N2CCC[C@H]2c2ncc(-c3ccc(C#Cc4ccc(-c5cnc([C@@H]6CCCN6C(=O)[C@H](NC(=O)N6CCN(C)CC6)c6ccccc6)[nH]5)cc4)cc3)[nH]2)c2ccccc2)CC1` [Compound 159] is lower in EC50: 1 to 9.9 nM for the first, less than 1 nM for the second.

For `COC(=O)NC(C(=O)N[C@@H](C)c1ncc(-c2ccc(C#Cc3ccc(-c4cnc([C@@H]5CCCN5C(=O)[C@H](NC(=O)OC)c5ccccc5)[nH]4)cc3)cc2)[nH]1)c1ccccc1` (some centres unmarked) [Compound 279], the EC50 was less than 1 nM.

same assay, conditions: Hepatitis C virus, Huh-7, read-out: Inhibition of HCV genotype 1b

`COC(=O)N[C@H](C(=O)N1CCN(C(C)=O)C[C@H]1c1ncc(-c2ccc(C#Cc3ccc4nc([C@@H]5CCCN5C(=O)[C@@H](NC(=O)OC)C5CCOCC5)[nH]c4c3)cc2)[nH]1)C1CCOCC1` [Compound 1234] and `COC(=O)N[C@H](C(=O)N[C@@H](C)c1ncc(-c2ccc(C#Cc3ccc4nc([C@@H]5CCCN5C(=O)[C@@H](NC(=O)OC)C5CCOCC5)[nH]c4c3)cc2)[nH]1)C1CCOCC1` [Compound 1227] fall in the same range of EC50: 1 to 9.9 nM for the first, 1 to 9.9 nM for the second.

`CC[C@@H](C)[C@H](NC(=O)OC)C(=O)N1CCC[C@H]1c1ncc(-c2ccc(C#Cc3ccc(-c4cnc([C@@H]5CCCN5C(=O)[C@@H](NC(=O)OC)[C@H](C)CC)[nH]4)cc3)cc2)[nH]1` [Compound 1217] and `CC[C@H](C)[C@H](NC(=O)OC)C(=O)N1CCC[C@H]1c1ncc(-c2ccc(C#Cc3ccc(-c4cnc([C@@H]5CCCN5C(=O)[C@@H](NC(=O)OC)[C@@H](C)CC)[nH]4)cc3)cc2)[nH]1` [Compound 1216] cannot be ordered by EC50: less than 1 nM for the first, less than 1 nM for the second.

`COC(=O)N[C@H](C(=O)N1CCC[C@H]1c1ncc(-c2ccc(C#Cc3ccc(-c4cnc([C@@H]5CCCN5C(=O)[C@@H](NC(=O)OC)C5CCOCC5)[nH]4)cc3)cc2)[nH]1)C(C)C` [Compound 1219] and `COC(=O)N[C@H](C(=O)N1CCC[C@H]1c1nc2ccc(C#Cc3ccc(-c4cnc([C@@H]5CCCN5C(=O)[C@@H](NC(=O)OC)C5CCOCC5)[nH]4)cc3)cc2[nH]1)C(C)C` [Compound 1237] cannot be ordered by EC50: less than 1 nM for the first, less than 1 nM for the second.

`COC(=O)N[C@H](C(=O)N1CCC[C@H]1c1ncc(-c2ccc(C#Cc3ccc(-c4cnc([C@@H]5CCCN5C(=O)[C@@H](NC(=O)OC)C(C)C)[nH]4)cc3C#N)cc2)[nH]1)C(C)C` [Compound 1202] and `CC[C@H](C)[C@H](NC(=O)OC)C(=O)N1CCC[C@H]1c1nc(C(F)(F)F)c(C#Cc2ccc3cc(-c4cnc([C@@H]5CCCN5C(=O)[C@@H](NC(=O)OC)[C@@H](C)OC)[nH]4)ccc3c2)[nH]1` [Compound 1262] cannot be ordered by EC50: less than 1 nM for the first, less than 1 nM for the second.

`COC(=O)NC(C(=O)N1CCC[C@H]1c1nc2ccc(C#Cc3ccc4cc(-c5cnc([C@@H]6CCCN6C(=O)[C@H](NC(=O)OC)c6ccccc6)[nH]5)ccc4n3)cc2[nH]1)C(C)C` (some centres unmarked) [Compound 1289] and `COC(=O)N[C@H](C(=O)N1CCN(C(=O)OC)C[C@H]1c1ncc(-c2ccc(C#Cc3ccc4nc([C@@H]5CCCN5C(=O)[C@H](NC(=O)OC5CCOCC5)c5ccccc5)[nH]c4c3)cc2)[nH]1)C(C)C` [Compound 1231] cannot be ordered by EC50: less than 1 nM for the first, less than 1 nM for the second.

`COC(=O)N[C@H](C(=O)N1CCC[C@H]1c1nc(C(F)(F)F)c(C#Cc2ccc3cc(-c4cnc([C@@H]5CCCN5C(=O)[C@@H](NC(=O)OC)[C@@H](C)OC)[nH]4)ccc3c2)[nH]1)C1CCCC1` [Compound 1263] and `C=CC[C@H](NC(=O)OC)C(=O)N1CCC[C@H]1c1nc2ccc(C#Cc3ccc4c(c3)CCCc3nc([C@@H]5CCCN5C(=O)[C@@H](NC(=O)OC)C(C)C)[nH]c3-4)cc2[nH]1` [Compound 1283] cannot be ordered by EC50: less than 1 nM for the first, less than 1 nM for the second.

Source: patent US20130296311A1, “INHIBITORS OF HCV NS5A” (PRESIDIO PHARMACEUTICALS, INC., priority 2010, published 2013)
